From patent EP0075095A2, “Cephalosporin derivatives, process for their preparation, pharmaceutical compositions containing them and intermediates” (F. HOFFMANN-LA ROCHE & CO. Aktiengesellschaft, priority 1981, dated 1983) come the findings set out here.

Each structure is given as a SMILES string.

One data set relates to Streptococcus pyogenes. Put plainly: Oral antimicrobial activity in vivo in the mouse (curative dose CD50), Streptococcus pyogenes infection. Also noted: species or system Maus. As to conditions: peroral dose at which 50% of tested mice survive, read-out: CD50, p.o. The source says: (§1) Die orale antimikrobielle Wirksamkeit der erwähnten Produkte kann anhand von in-vivo-Versuchen an der Maus nachgewiesen werden. Im nachstehenden bedeutet die kurative Dosis (CD50, p.o., mg/kg) diejenige perorale Dosis, bei der 50% der getesteten Mäuse überleben.
(§2) Ergebnis (CD50, p.o., mg/kg)

In a further data set the test system is Serratia marcescens. Put plainly: Oral antimicrobial activity in vivo in the mouse (curative dose CD50), Serratia marcescens infection. Also noted: species or system Maus. As to conditions: peroral dose at which 50% of tested mice survive, read-out: CD50, p.o.
From the text: as §1, §2

A further data set has as its system Escherichia coli. Kind of data set: Oral antimicrobial activity in vivo in the mouse (curative dose CD50), Escherichia coli infection. Also noted: species or system Maus. As to conditions: peroral dose at which 50% of tested mice survive, read-out: CD50, p.o.
From the text: as §1, §2

The test system of the next data set is Klebsiella pneumoniae. Kind of data set: Oral antimicrobial activity in vivo in the mouse (curative dose CD50), Klebsiella pneumoniae infection. As to conditions: peroral dose at which 50% of tested mice survive, read-out: CD50, p.o. More on the design: species or system Maus.
From the text: as §1, §2

The next data set in a line: in vivo. As to conditions: mouse, po.

With `CC1=C(C(=O)O)N2C(=O)[C@@H](NC(=O)[C@H](N)c3ccccc3)[C@H]2SC1` [Cephalexin, reference compound], the ED50 in the data set on Streptococcus pyogenes was 1.8 mg/kg; in the data set with Serratia marcescens, > 50 mg/kg; with Escherichia coli, 3.2 mg/kg.

The term LD50 denotes the dose at which mortality reaches 50%. As to `CO/N=C(\C(=O)N[C@@H]1C(=O)N2C(C(=O)OCOC(=O)C(C)(C)C)=C(CSc3nc(C(=O)OC)nn3C)CS[C@H]12)c1csc(N)n1` [Produkt A], the ED50 in the data set on Streptococcus pyogenes was found to be 0.72 mg/kg; in the data set on Klebsiella pneumoniae, 3.7 mg/kg; in the data set on Serratia marcescens, 1.5 mg/kg; in the data set with Escherichia coli it was 0.07 mg/kg. The LD50 at 24 h in “in vivo” is > 5000 mg/kg.

As to `CCOC(=O)c1nc(SCC2=C(C(=O)OCOC(=O)C(C)(C)C)N3C(=O)[C@@H](NC(=O)/C(=N\OC)c4csc(N)n4)[C@H]3SC2)n(C)n1` [Produkt B], the ED50 came out at 2.1 mg/kg in the data set on Streptococcus pyogenes and 0.8 mg/kg in the data set on Serratia marcescens. Also, the LD50 at 24 h in the data set “in vivo” is > 5000 mg/kg.

`CCn1nc(C(=O)OC)nc1SCC1=C(C(=O)OCOC(=O)C(C)(C)C)N2C(=O)[C@@H](NC(=O)/C(=N\OC)c3csc(N)n3)[C@H]2SC1` [Produkt C, Methylen-(6R,7R)-7-[(Z)-2-(2-Amino-4-thiazolyl)-2-(methoxyimino)acetamido]-3-[[[2-äthyl-5-(methoxycarbonyl)-2H-1,2,4-triazol-3-yl]thio]methyl]-8-oxo-5-thia-2-azabicyclo[4.2.0]oct-2-en-2-carboxylat-pivalat]: the values for the ED50 in the data set with Streptococcus pyogenes and in the data set on Serratia marcescens were 0.53 mg/kg and 2.54 mg/kg, respectively.

As for `CO/N=C(\C(=O)N[C@@H]1C(=O)N2C(C(=O)OCOC(=O)C(C)(C)C)=C(CSc3nc(C(=O)OC)nn3CC(=O)OCOC(=O)C(C)(C)C)CS[C@H]12)c1csc(N)n1` [Produkt D, Methylen-(6R,7R)-7-[(Z)-2-(2-Amino-4-thiazolyl)-2-(methoxyimino)-acetamido]-3-[[[5-(methoxycarbonyl)-2-[[[(pivaloyloxy)methoxy]-carbonyl]methyl]-2H-1,2,4-triazol-3-yl]thio]-methyl]-8-oxo-5-thia-1-azabicyclo[4.2.0]oct-2-en-2-carboxylat-pivalat], the ED50 is 8.8 mg/kg in the data set with Streptococcus pyogenes, 12.5 mg/kg in the data set with Klebsiella pneumoniae and > 6 mg/kg with Serratia marcescens. Moreover, in “in vivo”, the 50% lethal dose (LD50) at 24 h is > 5000 mg/kg.

As to `CCCn1nc(C(=O)OC)nc1SCC1=C(C(=O)OCOC(=O)C(C)(C)C)N2C(=O)[C@@H](NC(=O)/C(=N\OC)c3csc(N)n3)[C@H]2SC1` [Produkt E], the ED50 in the data set with Streptococcus pyogenes is 0.89 mg/kg; in the data set with Klebsiella pneumoniae it was 2.5 mg/kg; in the data set with Serratia marcescens, 1.8 mg/kg; with Escherichia coli it was 0.04 mg/kg. For the same molecule, the LD50 at 24 h in “in vivo” is > 5000 mg/kg.

As for `CO/N=C(\C(=O)N[C@@H]1C(=O)N2C(C(=O)OCOC(=O)C(C)(C)C)=C(CSc3nc(C(=O)OC)nn3-c3ccccc3)CS[C@H]12)c1csc(N)n1` [Produkt F], the ED50 was 1.5 mg/kg in the data set on Streptococcus pyogenes, > 12 mg/kg with Klebsiella pneumoniae and 5.8 mg/kg in the data set on Serratia marcescens. Also, in “in vivo”, the LD50 at 24 h is > 5000 mg/kg.
